In article PMC8157031, “Identification of Binding Regions of Bilirubin in the Ligand-Binding Pocket of the Peroxisome Proliferator-Activated Receptor-A (PPARalpha)” (Molecules, 2021):
Changes are numbered by the printed parent chain.

What was measured:
[1] = target: T1, bovine serum albumin (BSA) (Bos taurus, UniProt P02769); assay: bilirubin autofluorescence titration (excitation […] nm); assay type: binding
T1 construct: gene ALB

PPARα [2] = target: T2, PPARα (Mus musculus, UniProt P23204); assay: bilirubin autofluorescence titration with purified His-PPARα; assay type: binding
T2 construct: gene Ppara; full-length histidine-tagged mouse PPARα
T2 sequence (P23204 1-468): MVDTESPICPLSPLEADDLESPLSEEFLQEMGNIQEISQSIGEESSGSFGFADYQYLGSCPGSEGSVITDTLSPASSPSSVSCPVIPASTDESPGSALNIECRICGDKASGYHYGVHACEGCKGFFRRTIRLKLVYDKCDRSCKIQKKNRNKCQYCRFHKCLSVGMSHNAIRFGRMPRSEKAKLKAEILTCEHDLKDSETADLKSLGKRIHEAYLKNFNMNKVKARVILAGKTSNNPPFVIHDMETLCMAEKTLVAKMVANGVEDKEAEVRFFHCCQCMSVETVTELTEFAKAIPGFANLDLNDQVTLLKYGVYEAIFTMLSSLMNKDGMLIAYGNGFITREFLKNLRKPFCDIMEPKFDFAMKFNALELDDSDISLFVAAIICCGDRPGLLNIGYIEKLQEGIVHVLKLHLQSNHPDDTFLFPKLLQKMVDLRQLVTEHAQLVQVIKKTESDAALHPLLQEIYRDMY

PPARα [3] = target: T3, PPARα (Mus musculus, UniProt P23204, T283G); assay: bilirubin autofluorescence with purified mutant; binding reduced by […]
T3 construct: gene Ppara; full-length histidine-tagged mouse PPARα
T3 sequence (P23204 1-468 T283G): T2 sequence (P23204 1-468) with T283G

PPARα [4] = target: T4, PPARα (Mus musculus, UniProt P23204, A333G); assay: as above
T4 construct: gene Ppara; full-length histidine-tagged mouse PPARα
T4 sequence (P23204 1-468 A333G): T2 sequence (P23204 1-468) with A333G

[5] = target: T1, bovine serum albumin (BSA); assay: biliverdin autofluorescence dose-response (excitation […] nm); assay type: binding

T1 sequence (P02769 25-607): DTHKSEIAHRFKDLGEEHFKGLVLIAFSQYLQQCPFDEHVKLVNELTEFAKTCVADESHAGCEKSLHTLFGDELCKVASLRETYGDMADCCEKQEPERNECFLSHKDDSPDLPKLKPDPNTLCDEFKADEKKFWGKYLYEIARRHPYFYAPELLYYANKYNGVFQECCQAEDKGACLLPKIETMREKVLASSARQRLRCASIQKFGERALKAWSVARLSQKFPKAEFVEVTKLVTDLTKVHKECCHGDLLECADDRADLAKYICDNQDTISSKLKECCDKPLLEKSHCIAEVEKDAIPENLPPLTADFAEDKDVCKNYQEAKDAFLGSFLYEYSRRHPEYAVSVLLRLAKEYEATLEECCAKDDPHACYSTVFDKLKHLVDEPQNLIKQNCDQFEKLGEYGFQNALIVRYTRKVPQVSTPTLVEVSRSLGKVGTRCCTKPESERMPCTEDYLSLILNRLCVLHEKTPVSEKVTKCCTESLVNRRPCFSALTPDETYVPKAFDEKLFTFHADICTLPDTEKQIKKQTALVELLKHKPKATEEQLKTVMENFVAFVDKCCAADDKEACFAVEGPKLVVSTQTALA

| Compound | Kd [1] | Kd (PPARα [2]) | % reduction of binding (PPARα [3]) | % reduction of binding (PPARα [4]) | biliverdin autofluorescence dose-response (excitation 440 nm) [5] |
| --- | --- | --- | --- | --- | --- |
| C=CC1=C(C)/C(=C/c2[nH]c(Cc3[nH]c(/C=C4\NC(=O)C(C)=C4C=C)c(C)c3CCC(=O)O)c(CCC(=O)O)c2C)NC1=O [BR, bilirubin] | 11.1 µM | 5.13 µM | 11.4 % reduction of binding | 17.0 % reduction of binding |  |
| C=CC1=C(C)/C(=C/C2=NC(=C\c3[nH]c(/C=C4\NC(=O)C(C)=C4C=C)c(C)c3CCC(=O)O)/C(CCC(=O)O)=C2C)NC1=O [BV, biliverdin] |  |  |  |  | The results in Figure 1C show a dose-dependent increase in fluorescence for biliverdin bound to albumin |
